Experimental data published in US8334261B2, “Osteopenia animal model” (Oriental Yeast Co., Ltd., priority 2006, dated 2012).

Key:
[1] = tested on: 7-week-old female C57BL/6N mice; experiment: GST-RANKL administration test (57 and 426 nmol); format: in vivo, mouse
Procedure: GST-RANKL was intraperitoneally administered 3 times to groups of 7-week-old female C57BL/6N mice (10 individuals each) at doses of 57 nmol (low dose) and 426 nmol (high dose) every 24 hours. Exsanguination was performed 1.5 hours after the 3rd administration. A group to which PBS was administered in the same manner as above was used as a control group for comparison.
(§1) The exsanguinated blood was subjected to measurement of serum bone resorption parameters (calcium, CTx, TRAP-5b) and serum osteogenesis parameters (osteocalcin and alkaline phosphatase (ALP)). Calcium was measured by the OCPC method (WAKO, 272-21801). CTx (Nordic Bioscience Diagnostics), TRAP-5b (IDS Ltd, SB-TR103), and osteocalcin (Biomedical Technologies Inc.) were measured by ELISA. ALP was measured by the Bessey-Lowry method (WAKO, 274-04401).
The following organs were collected from each exsanguinated mouse: the femur, the tibia, the cerebrum, the lungs, the heart, the liver, the thymus, the spleen, the kidneys, and the skin. Naturally occurring lesions were observed by HE staining of the cerebrum, the lungs, the heart, the liver, the thymus, the spleen, the kidneys, and the skin.
Regarding the femur, the cancellous bone was subjected to bone density measurement with the use of pQCT at points 0.6 mm, 0.8 mm, and 1.0 mm from the distal growth plate on the proximal side at the distal end of the femur. Regarding the tibia, tibia sections were prepared for bone morphology measurement. Measurement values were compared with those for a control group by the Dunnett method for testing.

[2] = tested on: 7-week-old female C57BL/6N mice; experiment: RANKL administration test (213, 426, 852 nmol GST-RANKL); format: in vivo, mouse
Procedure: GST-RANKL was separately administered 3 times via an intraperitoneal route to groups of 7-week-old female C57BL/6N mice (10 individuals each) at doses of 213 nmol, 426 nmol, and 852 nmol every 24 hours. Exsanguination was performed 1.5 hours after the 3rd administration. A group to which PBS was administered in the same manner as above was used as a control group for comparison. 213 nmol, 426 nmol and 852 nmol of GST-RANKL correspond to 10 μg, 20 μg and 40 μg, respectively.
as §1
The femur and the tibia were collected from each exsanguinated mouse. Regarding the femur, the cancellous bone was subjected to bone density measurement with the use of pQCT at points 0.6 mm, 0.8 mm, and 1.0 mm from the distal growth plate on the proximal side. Measurement values were compared with those for a control group by the Dunnett method for testing.

female C57BL/6N mice = experiment: Producing OVX mice in a short period of time (GST-RANKL plus ovariectomy); format: in vivo, mouse
Procedure: 7-week-old female C57BL/6N mice were reared for 25 days. Then, GST-RANKL was intraperitoneally administered twice thereto at 1 mg/kg every 24 hours. Ovariectomy was carried out 24 hours after the 2nd administration. Further, the femur, tibia, and serum were collected from each mouse 24 hours after ovariectomy. The obtained samples were compared with the samples obtained from a group that was reared for 4 weeks after ovariectomy. In addition, PBS was administered to control groups for comparison with GST-RANKL administration groups. The PBS administration groups were subjected to sham operation (Sham) for comparison with the groups subjected to ovariectomy.
Regarding bone metabolism markers, TRAP-5b, calcium (Ca), and alkaline phosphatase (ALP) in the serum were measured. Each femur was subjected to bone density measurement with pQCT and image analysis with micro CT. After the initiation of rearing, the date of implementation of OVX or sham operation was expressed as “day X.”

[3] = tested on: 7-week-old female Fischer rats; experiment: Examination with Fischer rats; format: in vivo, rat
Procedure: GST-RANKL was intraperitoneally administered 3 times to 7-week-old female Fischer rats at 1 mg/kg every 24 hours. The serum and femur were collected from each mouse 1.5 hours after the 3rd administration, followed by comparison with the PBS administration group. The serum of each mouse was subjected to measurement (with the use of an SB-TR102 kit, IDS Ltd.) of the Ca and TRAP-5b concentrations serving as bone resorption markers and the ALP concentration serving as an osteogenesis marker. Each femur was subjected to bone density measurement with pQCT and image analysis with micro CT.

mice = experiment: Double-dose administration of GST-RANKL at 0.5, 1 and 2 mg/kg; format: in vivo, mouse; conditions: 2 mg/kg compared with 0.5 mg/kg and 1 mg/kg
[4] = high dose 426 nmol i.p. 3 times

For “GST-RANKL: fused protein of Glutathione S-transferase with human RANKL residues 140-317, expressed in Escherichia coli, 47.0 kDa”, the “abnormal findings and lesions in organs (HE staining)” value ([1]; 57 and 426 nmol, cerebrum, lungs, heart, liver, thymus, spleen, kidneys, skin) was “not observed”, the “femur bone morphology with micro CT” value ([1]; high dose 426 nmol) was “significant bone decreases” and the “serum ALP concentration” value ([1]; high dose 426 nmol) was “did not vary”. For the same substance, the serum osteocalcin concentration ([1]; high dose 426 nmol) was “did not vary”, the “tibial osteoblast surface area” value ([1]; high dose 426 nmol) was “significant osteoblast surface area increase” and the tibial osteoclast number ([1]; high dose 426 nmol) was “increased”. For the same substance, the “tibial trabecular number decrease” value ([1]; high dose 426 nmol) was “approximately 50%”, the “tibial unit bone mass decrease” value ([1]; high dose 426 nmol) was “approximately 50%” and the “serum CTx concentration, fold as high as control” value [1, 4] was “approximately 1.5 fold”. The “serum TRAP-5b concentration, fold as high as control” value [1, 4] was “approximately 1.5 fold”, the “serum Ca concentration, fold as high as control” value ([1]; high dose 426 nmol i.p. 3 times every 24 hours, 1.5 hours after 3rd administration) was “approximately 1.4 fold” and the “femur bone density decrease (pQCT)” value ([1]; high dose 426 nmol, 0.6 mm from distal growth plate) was 10%. For the same substance, the “femur bone density decrease (pQCT)” value ([1]; high dose 426 nmol, 0.8 mm) was 23%, the “femur bone density decrease (pQCT)” value ([1]; high dose 426 nmol, 1.0 mm) was 20% and the “femur bone density (pQCT) vs control” value ([1]; low dose 57 nmol) was “no significant difference”. The “serum ALP concentration” value ([1]; low dose 57 nmol) was “did not vary”, the serum osteocalcin concentration ([1]; low dose 57 nmol) was “did not vary” and the tibial trabecular number ([1]; low dose 57 nmol) was “no decrease was observed”. The “tibial unit bone mass” value ([1]; low dose 57 nmol) was “no decrease was observed”, the “serum CTx concentration” value ([2]; 213 nmol) was “No significant increases” and the “serum TRAP-5b concentration” value ([2]; 213 nmol) was “No significant increases”. The serum calcium concentration ([2]; 213 nmol i.p. 3 times, p<0.05) was “significantly increased”, the “femur bone density decrease (pQCT)” value ([2]; 213 nmol, 0.6 mm) was 11% and the “femur bone density decrease (pQCT)” value ([2]; 213 nmol, 0.8 mm) was 23%. The “femur bone density decrease (pQCT)” value ([2]; 213 nmol, 1.0 mm) was 23%, the “femur bone density decrease (pQCT)” value ([2]; 426 nmol, 0.6 mm) was 19% and the “femur bone density decrease (pQCT)” value ([2]; 426 nmol, 0.8 mm) was 29%. The “femur bone density decrease (pQCT)” value ([2]; 426 nmol, 1.0 mm) was 31%, the “serum CTx concentration” value ([2]; 426 nmol, p<0.01) was “significant increases” and the “serum TRAP-5b concentration” value ([2]; 426 nmol, p<0.01) was “significant increases”. For the same substance, the serum calcium concentration ([2]; 426 nmol, p<0.01) was “obviously increased”, the “femur bone density decrease (pQCT)” value ([2]; 852 nmol, 0.6 mm) was 30% and the “femur bone density decrease (pQCT)” value ([2]; 852 nmol, 0.8 mm) was 42%. The “femur bone density decrease (pQCT)” value ([2]; 852 nmol, 1.0 mm) was 44%, the “serum CTx concentration” value ([2]; 852 nmol, p<0.01) was “significant increases” and the “serum TRAP-5b concentration” value ([2]; 852 nmol, p<0.01) was “significant increases”. The serum calcium concentration ([2]; 852 nmol, p<0.01) was “obviously increased”, the “image analysis with micro CT” value ([2]; 213 to 852 nmol) was “dose-dependent decreases in the bone density” and the “serum ALP concentration increase vs PBS+Sham (day 27) group” value (female C57BL/6N mice; GST-RANKL administration OVX (day 27) group) was “approximately 40%”. For the same substance, the “femur bone density decrease vs PBS+Sham (day 27)” value (female C57BL/6N mice; GST-RANKL+OVX (day 27), 0.6 mm) was “approximately 4%”, the “femur bone density decrease vs PBS+Sham (day 27)” value (female C57BL/6N mice; GST-RANKL+OVX (day 27), 0.8 mm) was “approximately 13%” and the “femur bone density decrease vs PBS+Sham (day 27)” value (female C57BL/6N mice; GST-RANKL+OVX (day 27), 1.0 mm) was “approximately 15%”. For the same substance, the “femur bone density decrease vs PBS+Sham (day 27)” value (female C57BL/6N mice; GST-RANKL+Sham (day 27), 0.6 mm) was “approximately 7%”, the “femur bone density decrease vs PBS+Sham (day 27)” value (female C57BL/6N mice; GST-RANKL+Sham (day 27), 0.8 mm) was “approximately 14%” and the “femur bone density decrease vs PBS+Sham (day 27)” value (female C57BL/6N mice; GST-RANKL+Sham (day 27), 1.0 mm) was “approximately 16%”. The “serum TRAP-5b concentration, fold as high as PBS+Sham (day 27) group” value (female C57BL/6N mice; every GST-RANKL administration group, 1 mg/kg i.p. twice, no significant difference) was “approximately 1.8 fold”, the “serum ALP concentration vs control” value ([3]; 1 mg/kg i.p. 3 times) was “no changes” and the “serum Ca concentration vs control” value ([3]; 1 mg/kg i.p. 3 times) was “no changes”. The “serum TRAP-5b concentration vs control” value ([3]; 1 mg/kg i.p. 3 times) was “no changes”, the “femur bone density decrease” value ([3]; 3 mm from the distal growth plate) was “approximately 20%” and the “bone mass decreasing effects” value (mice) was “promoted”.
